This note sets out measurements from ChEMBL document CHEMBL1157132, “Hydrolyzable tannins of tamaricaceous plants. III. Hellinoyl- and macrocyclic-type ellagitannins from Tamarix nilotica” (J Nat Prod, 2010).

A word on the CC50: it is the concentration giving 50% cytotoxicity. A high value points to lower toxicity to the cells.

One data set relates to HL-60. Description: Cytotoxicity against human HL60 cells after 48 hrs by MTT assay. The data set is classed as functional. The following applies: HL-60, 48 h. For orientation: Formazan colour is commonly taken as a measure of viable cells.
Data set [1] is described as follows: Cytotoxicity against human HPLF cells after 48 hrs by MTT assay. It is filed as cell-based.
The subject of a further data set is HSC-3. Description: Cytotoxicity against human HSC3 cells after 48 hrs by MTT assay. It is filed as functional. Particulars: HSC-3, 48 h.
For another data set, the system named is HSC-4. Nature of the data set: Cytotoxicity against human HSC4 cells after 48 hrs by MTT assay. The data set is classed as functional. Particulars: HSC-4, 48 h.
The nature of data set [2]: Cytotoxicity against human HPC cells after 48 hrs by MTT assay. It is filed as cell-based.
In another data set the test system is HSC-2. Description: Cytotoxicity against human HSC2 cells after 48 hrs by MTT assay. The data set is classed as functional. Particulars: HSC-2, 48 h.
Data set [3] in a line: Cytotoxicity against human HGF cells after 48 hrs by MTT assay. It is filed as cell-based.

Regarding `O=C1O[C@@H]2O[C@@H]3COC(=O)c4cc(O)c(O)c(O)c4-c4c(cc(O)c(O)c4O)C(=O)O[C@H]3[C@H](OC(=O)c3cc(O)c(O)c(O)c3)[C@H]2OC(=O)c2cc(Oc3c(C(=O)O)cc(O)c(O)c3O)c(O)c(O)c2Oc2cc1cc(O)c2O` [NILOTININ M4], the cytotoxic concentration (CC50) in the data set on HL-60 is 30.6 µM; in the data set on HSC-3, 57 µM; in the data set on HSC-4 it was 62 µM; in the data set with HSC-2, 35 µM. The cytotoxic concentration (CC50) at 48 h was found to be 361 µM in data set [1], 263 µM in data set [2] and 325 µM in data set [3].

As to `O=C(O)c1cc(O)c(O)c(Oc2c(C(=O)O[C@@H]3[C@@H](OC(=O)c4cc(O)c(O)c(O)c4O)[C@@H]4OC(=O)c5cc(O)c(O)c(O)c5-c5c(cc(O)c(O)c5O)C(=O)OC[C@H]4O[C@H]3O)cc(O)c(O)c2O)c1` [REMURIN B], the 50% cytotoxic concentration (CC50) in the data set on HL-60 stood at 41.7 µM; in the data set with HSC-3, 63.3 µM; with HSC-4 it was 60 µM; in the data set on HSC-2, 32.3 µM. In addition, the CC50 at 48 h in data set [1] was found to be 375 µM; in data set [2] it was 255 µM; in data set [3], 337 µM.

With `O=C(O[C@@H]1O[C@@H]2COC(=O)c3cc(O)c(O)c(O)c3-c3c(cc(O)c(O)c3O)C(=O)O[C@H]2[C@H](OC(=O)c2cc(O)c(O)c(O)c2)[C@H]1OC(=O)c1cc(O)c(O)c(O)c1Oc1cc2c(c(O)c1O)Oc1cc(cc(O)c1O)C(=O)O[C@@H]1O[C@@H]3COC(=O)c4cc(O)c(O)c(O)c4-c4c(cc(O)c(O)c4O)C(=O)O[C@H]3[C@H](OC(=O)c3cc(O)c(O)c(O)c3)[C@H]1OC2=O)c1cc(O)c(O)c(O)c1` [HIRTELLIN B], the CC50 was 8.71 µM with HL-60, 99.3 µM with HSC-3, 74 µM with HSC-4 and 91.7 µM with HSC-2. Besides, the half-maximal cytotoxic concentration (CC50) at 48 h in data set [1] was 293 µM; in data set [2], 78.5 µM; in data set [3] it was 177 µM.

On to `O=C(O)c1cc(O)c(O)c(Oc2c(C(=O)O[C@H]3[C@H](OC(=O)c4cc(O)c(O)c(O)c4)O[C@@H]4COC(=O)c5cc(O)c(O)c(O)c5-c5c(cc(O)c(O)c5O)C(=O)O[C@H]4[C@@H]3OC(=O)c3cc(O)c(O)c(O)c3O)cc(O)c(O)c2O)c1` [REMURIN A], for which the CC50 came out at 18.4 µM in the data set with HL-60, 51 µM in the data set on HSC-3, 48 µM in the data set with HSC-4 and 31.3 µM with HSC-2. In addition, the CC50 at 48 h in data set [1] is 373 µM; in data set [2] it was 170 µM; in data set [3], 218 µM.

With `O=C(O[C@@H]1O[C@@H]2COC(=O)c3cc(O)c(O)c(O)c3-c3c(cc(O)c(O)c3O)C(=O)O[C@H]2[C@H](OC(=O)c2cc(O)c(O)c(O)c2)[C@H]1OC(=O)c1cc(O)c(O)c(O)c1Oc1cc2c(c(O)c1O)Oc1cc(cc(O)c1O)C(=O)O[C@@H]1O[C@H](CO)[C@@H](O)[C@H](OC(=O)c3cc(O)c(O)c(O)c3)[C@H]1OC2=O)c1cc(O)c(O)c(O)c1` [NILOTININ D8], the CC50 came out at 22.9 µM with HL-60, 48.3 µM in the data set on HSC-3, 54.3 µM with HSC-4 and 32.3 µM with HSC-2. For the same compound, the half-maximal cytotoxic concentration (CC50) at 48 h came out at 358 µM in data set [1], 278 µM in data set [2] and 318 µM in data set [3].

As for `O=C1O[C@@H]2O[C@@H]3COC(=O)c4cc(O)c(O)c(O)c4-c4c(cc(O)c(O)c4O)C(=O)O[C@H]3[C@H](OC(=O)c3cc(O)c(O)c(O)c3)[C@H]2OC(=O)c2cc(Oc3c(C(=O)O[C@@H]4[C@@H](OC(=O)c5cc(O)c(O)c(O)c5)[C@@H]5OC(=O)c6cc(O)c(O)c(O)c6-c6c(cc(O)c(O)c6O)C(=O)OC[C@H]5O[C@H]4O)cc(O)c(O)c3O)c(O)c(O)c2Oc2cc1cc(O)c2O` [TAMARIXININ A], the CC50 in the data set with HL-60 was 30.8 µM; in the data set with HSC-3, 54.3 µM; in the data set with HSC-4, 59.3 µM; with HSC-2, 29.3 µM. Further, the cytotoxic concentration (CC50) at 48 h in data set [1] came to 353 µM; in data set [2], 199 µM; in data set [3] it was 274 µM.
